For the test, the system named is QT interval. Description: QT interval prolongation (ECG, class III action) in anesthetized guinea pigs. The note with it: guinea pigs, intravenous; for ED (20%): Cavia porcellus, urethane anesthesia, dose for 20% QT prolongation calculated from log dose (mg/kg) vs relative QT prolongation, read-out: Prolongation of the QT interval ED20%; for Potency relative to that of d-sotalol = 1.0: QT prolongation, ED20%. The test is classed as in vivo, Pirbright white guinea pigs. How it is done:
The action of the novel substances has been tested as follows:
The experimental animals used were male and female Pirbright white guinea pigs weighing 300-500 g. 1.5 g/kg urethane i.p. were used for anesthesia. The substances were administered intravenously. The extremity lead II was recorded to measure the ECG conduction times and the heart rate. The measured variables were the QT and PQ intervals and the heart rate. 4-6 animals were used for each dose. The criterion for a class III action was an increase in the QT interval compared with the values before administration of the substance. A PQ increase and a large decrease in the heart rate were used as exclusion criteria. The ED20% is calculated from the linear relation between log dose (mg/kg) of the substance and the relative prolongation of the QT interval (Δ%).

Counter-ions that a name gives are not always drawn.

Results on twelve compounds are retold here after patent US5214047A, “Tetracyclic quinazoline derivatives, effective as antiarrythmic agents” (priority 1987, dated 1993).

In the case of `CC1(C)CN=C2c3ccccc3N3CCCC3(c3ccccc3)N2C1` (centres unmarked) [Example 41, 2,3,5,6,7,8-Hexahydro-3,3-dimethyl-6-phenyl-2H-pyrimido[1,2-c]pyrrolo[1,2-a]quinazoline hydrochloride], the ED (20%) is 0.46 mg/kg and the “Potency relative to that of d-sotalol = 1.0” value (“Potency relative to that” below) was 7.8.

For `CC1(C)CN=C2c3ccccc3N3CCCC3(c3ccc([N+](=O)[O-])cc3)N2C1` (centres unmarked) [Example 42, 2,3,5,6,7,8-Hexahydro-3,3-dimethyl-6-(4-nitrophenyl)-2H-pyrimido[1,2-c]pyrrolo[1,2-a]quinazoline hydrochloride], the ED (20%) is 0.78 mg/kg and the “Potency relative to that” value is reported as 4.7.

Take `CC1(C)CN=C2c3ccccc3N3CCCC3(c3ccccc3)N21` (centres unmarked) [Example 43, 2,3,5,6,7,8-Hexahydro-3,3-dimethyl-5-phenylimidazo[1,2-c]pyrrolo[1,2-a]quinazoline hydrochloride]: the ED (20%) was 0.6 mg/kg and the “Potency relative to that” value was 6.1. The corresponding values for `CC1(C)CCN=C2c3ccccc3N3CCCC3(c3ccccc3)N21` (centres unmarked) [Example 44, 2,3,5,6,7,8-Hexahydro-4,4-dimethyl-6-phenyl-2H-pyrimido[1,2-c]pyrrolo[1,2-a]quinazoline hydrochloride] are 0.49 mg/kg and 7.4. On the same counts, the results for `CC1(C)CN=C2c3ccccc3N3CCCC3(c3ccc(F)cc3)N21` (centres unmarked) [Example 45, hydrochloride] are 0.59 mg/kg and 6.2. On to `CC1(C)CN=C2c3ccccc3N3CCCC3(c3ccc([N+](=O)[O-])cc3)N21` (centres unmarked) [Example 46, 2,3,5,6,7,8-Hexahydro-3,3-dimethyl-5-(4-nitrophenyl)imidazo[1,2-c]pyrrolo[1,2-a]quinazoline hydrochloride], for which the ED (20%) was 0.55 mg/kg and the “Potency relative to that” value stood at 6.7.

For the compound `CC1(C)CCN=C2c3ccccc3N3CCCC3(c3ccc([N+](=O)[O-])cc3)N21` (centres unmarked) [Example 47, 2,3,5,6,7,8-Hexahydro-4,4-dimethyl-6-(4-nitrophenyl)-2H-pyrimido[1,2-c]pyrrolo[1,2-a]quinazoline hydrochloride], the ED (20%) is 0.52 mg/kg and the “Potency relative to that” value amounted to 7.0. On the same counts, the results for `CC1CN=C2c3ccccc3N3CCCC3(c3ccc([N+](=O)[O-])cc3)N21` (centres unmarked) [Example 48, 2,3,5,6,7,8-Hexahydro-3-methyl-5-(4-nitrophenyl)imidazo[1,2-c]pyrrolo[1,2-a]quinazoline hydrochloride] are 0.31 mg/kg and 11.8. Regarding `c1ccc(C23CCCN2c2ccccc2C2=NCCCN23)cc1` (centres unmarked) [Example 49, 2,3,5,6,7,8-Hexahydro-6-phenyl-2H-pyrimido[1,2-c]pyrrolo[1,2-a]quinazoline hydrochloride], the ED (20%) is 0.32 mg/kg and the “Potency relative to that” value came to 11.

For `c1ccc(C23CCCN2c2ccccc2C2=NCCN23)cc1` (centres unmarked) [Example 50, hydrochloride], the ED (20%) is 0.25 mg/kg and the “Potency relative to that” value is reported as 15.

`CS(=O)(=O)Oc1ccc(C23CCCN2c2ccccc2C2=NCCN23)cc1` (centres unmarked) [Example 53, hydrochloride]: the ED (20%) was 1 mg/kg and the “Potency relative to that” value is recorded as 3.6. On to `CC(C)NC[C@@H](O)c1ccc(NS(C)(=O)=O)cc1` [d-sotalol, reference compound], for which the ED (20%) was 3.6 mg/kg.
